Where two headings read alike, the source gives them in different places.
What was measured:
EJ = experiment: MTT cytotoxicity test; assay type: cell-based, human; conditions: 72 h exposure
Description: (§1) The group of human cell lines used in this study were represented by the tumor cell lines MDA-MB (breast carcinoma), EJ (urinary bladder carcinoma), K-562 (chronic myeloid leukemia), HL-60 (acute pre-myeloid leukemia), HL-60/DOX (multi-drug resistant HL-60 cell line, with over expression of MRP-1) and the non-tumorigenic cell lines HEK-293 (embryonic kidney cells) and EA.hy926 (vascular endothelial cells). EJ, HL60 and EA.hy926 were purchased from American Type Culture Collection (ATCC) (Manassas, Virginia). The other cell lines were purchased from the German Collection of Microorganisms and Cell Cultures (DSMZ GmbH, Braunschweig, Germany). HL-60/DOX cell lines were generated by periodically treating HL-60 cells with anthracyclins. The conditions in which the cell culture flasks were maintained were as follows: 37 °C in an incubator “BB 16-Function Line” Heraeus (Kendro, Hanau, Germany) with 5% CO2 humidified atmosphere. The growth medium was 90% RPMI-1640, supplemented with 10% FBS and 2 mM L-glutamine. MDA-MB-231, EJ, HEK-293 and EA.hy926 cells were maintained as adherent monolayer cultures while all the other (leukemic) cell lines were grown as suspension type cultures. Cells were maintained in log phase: the adherent cell lines were subjected to trypsinization 1–2 times a week and the leukemic cell lines were passaged 2–3 times a week by removing of part of the cellular suspension and substituting it with fresh medium.
(§2) The evaluation of cytotoxic activity was conducted by MTT test as described previously. The median inhibitory concentration (IC50) values which represent the half-maximal concentration values were calculated from sigmoidal concentration–response curves, using non-linear regression analysis (Curve fit, GraphPad Prizm 5.0 software, GraphPad Software Inc., San Diego, CA, USA). The selectivity index was calculated as the ratio of the IC50 of a non-cancerous line (HEK-293 or EA.hy926) and the average IC50 of all chemosensitive tested tumor cell lines (x). Therefore, SI=IC50HEK-293/IC50x . The resistance index (RI) was calculated as the ratio of IC50 of the multi-drug resistant HL-60/DOX cell line and the IC50 of its parent cell line: RI=IC50HL-60/DOX/IC50HL-60 .

EA.hy926 = experiment: MTT cytotoxicity test; assay type: cell-based, human
Description: as §1, §2

K-562 [1] = experiment: MTT cytotoxicity test; assay type: cell-based, human
Description: as §1, §2

MDA-MB-231 [2] = experiment: MTT cytotoxicity test; assay type: cell-based, human; conditions: MDA-MB-231, 72 h exposure
Description: as §1, §2

HL-60 [3] = experiment: MTT cytotoxicity test; assay type: cell-based, human; conditions: HL-60, 72 h exposure
Description: as §1, §2

HEK-293 = experiment: MTT cytotoxicity test; assay type: cell-based, human
Description: as §1, §2

HL-60/DOX = experiment: MTT cytotoxicity test; assay type: cell-based, human; conditions: 72 h exposure
Description: as §1, §2

[4] = tested on: human tumor (MDA-MB-231, EJ, K-562, HL-60 and HL-60/DOX) cell lines; experiment: MTT cytotoxicity test, tumor cell line panel; assay type: cell-based
Description: as §1, §2

SKW-3 = tested on: SKW-3; design: method as in PMID 26411018; conditions: human leukemia cell line SKW-3, dissolved in DMSO; cited from earlier work
K-562 [5] = experiment: Antiproliferative test (NCI methodology); assay type: cell-based, human; conditions: for GI50: K-562, MTT readout; for TGI: K-562, total growth inhibition
Description: as §1
(§3) The test was performed according the methodology of National Cancer Institute (NCI), USA [116]. Briefly, cells were seeded into 96-well plates in the same way as for an MTT test and after 24 h, the absorption of one plate of each cell line was measured as in the MTT assay described above, to represent a measurement of the cell population at the time of drug-addition (Tz). The rest of the plates were treated with the tested compounds and the experiment for them continued as the MTT-method. Using the absorbance measurements [(Tz, untreated control growth (C) and test growth in the present of the compounds (Ti)], the percentage growth is calculated at each of the tested concentrations of the compounds. Percentage growth inhibition (GI) is calculated as GI%=Ti−Tz/C−Tz×100 for concentrations for which Ti ≥ Tz. For concentrations in which Ti < Tz it is calculated as GI%=Ti−Tz/Tz×100 . Two dose parameters are calculated for each experimental agent. Growth inhibition of 50% (GI50) is calculated from Ti−Tz/C−Tz×100=50 . This is the drug concentration resulting in a 50% reduction in the net protein increase (as measured by MTT-test) in control cells during the drug incubation. The drug concentration resulting in total growth inhibition (TGI) is calculated from Ti = Tz.

MDA-MB-231 [6] = experiment: Antiproliferative test (NCI methodology); assay type: cell-based, human; conditions: for GI50: MDA-MB-231, MTT readout; for TGI: MDA-MB-231, total growth inhibition
Description: as §1, §3

HL-60 [7] = experiment: Antiproliferative test (NCI methodology); assay type: cell-based, human; conditions: for TGI: HL-60, total growth inhibition; for GI50: HL-60, MTT readout
Description: as §1, §3

BV-173 = tested on: BV-173; design: method as in PMID 26411018; conditions: human leukemia cell line BV-173, dissolved in DMSO; cited from earlier work
[8] = Homo sapiens, EA.hy 926, EA.hy926, 72 h exposure
[9] = Homo sapiens, K562, K-562, 72 h exposure
[10] = Homo sapiens, HEK293, HEK-293, 72 h exposure
[11] = Homo sapiens, average IC50 of all chemo-sensitive tested tumor cell lines, read-out: x

Compound	IC50 (EJ; Homo sapiens)	IC50 (EA.hy926; [8])	IC50 (K-562 [1]; [9])	IC50 (MDA-MB-231 [2]; Homo sapiens)	IC50 (HL-60 [3]; Homo sapiens)	IC50 (HEK-293; [10])	IC50 (HL-60/DOX; Homo sapiens)	IC50 [4, 11]	TGI (K-562 [5])	TGI (MDA-MB-231 [6])	TGI (HL-60 [7])	also measured
CC(C)=CCC[C@]1(C)[C@@H](CC=C(C)C)C[C@]2(C)C(=O)C(CC=C(C)C)=C(O)[C@@]1(C(=O)C(C)C)C2=O [Compound 3, hyperpolyphyllirin/hyperibine J]	8.02 ± 1.6 µM	19.9 ± 3.1 µM	3.17 ± 0.3 µM	2630 ± 300 nM	10.9 ± 1.9 µM	10.7 ± 2.1 µM	1280 ± 200 nM	6.18 µM	0.77 µM	2.96 µM	47.43 µM	IC50 (SKW-3): 5.3 µM; GI50 (K-562 [5]; Homo sapiens, K562): 0.44 µM; GI50 (MDA-MB-231 [6]; Homo sapiens): 1930 nM; GI50 (HL-60 [7]; Homo sapiens): 41.1 µM; IC50 (BV-173): 5.7 µM
CC(C)=CCC[C@]1(C)[C@@H](CC=C(C)C)C[C@H]2C(=O)[C@]1(C(=O)C(C)C)C(=O)C(CC=C(C)C)=C2O [Compound 5, (1S,5R,7S,8R)-4-hydroxy-1-isobutyryl-8-methyl-3,7-bis(3-methylbut-2-en-1-yl)-8-(4-methylpent-3-en-1-yl)bicyclo[3.3.1]non-3-ene-2,9-dione]	1.21 ± 0.3 µM	9.43 ± 2 µM	1.58 ± 0.1 µM	1310 ± 200 nM	1.16 ± 0.1 µM	0.89 ± 0.1 µM	1710 ± 200 nM	1.32 µM	–	–	–	IC50 ([4]; Homo sapiens, tumor cell lines, MTT assay, read-out: IC50 (range over the tumor cell lines)): 1.16 to 1.71 µM
(1R,5R,7S,8R)-4-hydroxy-5,8-dimethyl-3,7-bis(3-methylbut-2-en-1-yl)-1-(2-methylbutanoyl)-8-(4-methylpent-3-en-1-yl)bicyclo[3.3.1]non-3-ene-2,9-dione [Compound 4]	–	–	–	–	–	–	–	–	18.38 µM	0.81 µM	55.55 µM	IC50 (EJ): 8.06 ± 1.7 µM; IC50 (EA.hy926; EA.hy926, 72 h exposure): 5.34 ± 1.9 µM; IC50 (K-562 [1]; K-562, 72 h exposure): 17.2 ± 3 µM; IC50 (MDA-MB-231 [2]): 12500 ± 2100 nM; IC50 (HL-60 [3]): 22.2 ± 3.4 µM; IC50 (HEK-293; HEK-293, 72 h exposure): 35.8 ± 4.4 µM; IC50 (HL-60/DOX): 12200 ± 3200 nM; IC50 ([4]; average IC50 of all chemo-sensitive tested tumor cell lines, read-out: x): 15 µM; GI50 (K-562 [5]): 16 µM; GI50 (MDA-MB-231 [6]): 520 nM; GI50 (HL-60 [7]): 41.1 µM
